Data reported in PMC9542405, “Design, synthesis and antitumor activity of 5-trifluoromethylpyrimidine derivatives as EGFR inhibitors” (Journal of Enzyme Inhibition and Medicinal Chemistry, 2022).

Tests used:
[1] = test system: A549 cells; assay: A549 cell apoptosis (Annexin V-FITC/PI flow cytometry); settings: 48 h
Description: And then, the original culture medium was replaced with 0.1 μM, 0.5 μM, and 1 μM compounds (Geftinib or the testing compound) in the cell incubator for 48 h. After trypsin digests cells, the cells were collected after centrifugation, resuspended with PBS and counted. After suspension of the cells with Annexin V – FITC binding solution and mixing with PI staining solution, the fluorescence density was detected by flow cytometry in BD Accuri C6 flow cytometry, which was provided by School of Pharmaceutical Sciences, Guizhou University, China.

[2] = test system: A549 cells; assay: A549 cell cycle analysis (flow cytometry); assay type: cell-based, Human
[3] = test system: PC-3 cells; assay: In vitro activity against cancer cell lines (MTT), PC-3; assay type: cell-based; settings: Homo sapiens, mean ± SD of three replicates
Description: (§1) Co., Ltd. A549 (Human non-small-cell lung cancer cell line) cells, MCF-7 (Human breast cancer
(§2) cell line) cells, and PC-3 (Human prostate cancer cell line) cells. They were all purchased from the
(§3) Shanghai Cell Bank of the Chinese Academy of Sciences. NRK-52E (Normal rat kidney cell line)
(§4) cells donated by Guizhou Medicinal University were also used to evaluate the cytotoxicity.

[4] = test system: A549 cells; assay: In vitro activity against cancer cell lines (MTT), A549; assay type: cell-based; settings: Homo sapiens, mean ± SD of three replicates
Description: as §1, §2, §3, §4

[5] = test system: MCF-7 cells; assay: In vitro activity against cancer cell lines (MTT), MCF-7; assay type: cell-based; settings: Homo sapiens, MCF7, mean ± SD of three replicates
Description: as §1, §2, §3, §4

[6] = molecular target: T1, EGFR^wt-TK (Homo sapiens, UniProt P00533); assay: In vitro EGFR^wt-TK assay (ELISA kit); assay type: biochemical; settings: mean ± SD of three replicates; for inhibition at 1 µM: read-out: EGFR^wt-TK inhibition rate; for inhibition at 1 µM / EGFR^wt-TK inhibition rate: 1 μM
T1 construct: purchased
Description: The IC50 values of target compounds against EGFR^wt were calculated from the dose − response curve under Graph-Pad Prism 9, which was tested at the different concentrations.

[7] = test system: NRK-52E (Normal rat kidney cell line) cells; assay: Cytotoxicity evaluation against normal cell line (MTT); assay type: cell-based; settings: 10 μM
Description: Three tumour cells A549, MCF-7, and PC-3 with high expression of EGFR^wt were used to investigate antitumor activities of compounds 9a–9x. NRK-52E (Normal rat kidney cell line) cells were used to evaluate cytotoxicity of compounds 9a–9x. They were all tested with typical MTT method, and Gefitinib were used as positive controls.
NRK-52E (Normal rat kidney cell line) cells were used to evaluate cytotoxicity of compounds 9a–9x.

T1 sequence (P00533 25-1210): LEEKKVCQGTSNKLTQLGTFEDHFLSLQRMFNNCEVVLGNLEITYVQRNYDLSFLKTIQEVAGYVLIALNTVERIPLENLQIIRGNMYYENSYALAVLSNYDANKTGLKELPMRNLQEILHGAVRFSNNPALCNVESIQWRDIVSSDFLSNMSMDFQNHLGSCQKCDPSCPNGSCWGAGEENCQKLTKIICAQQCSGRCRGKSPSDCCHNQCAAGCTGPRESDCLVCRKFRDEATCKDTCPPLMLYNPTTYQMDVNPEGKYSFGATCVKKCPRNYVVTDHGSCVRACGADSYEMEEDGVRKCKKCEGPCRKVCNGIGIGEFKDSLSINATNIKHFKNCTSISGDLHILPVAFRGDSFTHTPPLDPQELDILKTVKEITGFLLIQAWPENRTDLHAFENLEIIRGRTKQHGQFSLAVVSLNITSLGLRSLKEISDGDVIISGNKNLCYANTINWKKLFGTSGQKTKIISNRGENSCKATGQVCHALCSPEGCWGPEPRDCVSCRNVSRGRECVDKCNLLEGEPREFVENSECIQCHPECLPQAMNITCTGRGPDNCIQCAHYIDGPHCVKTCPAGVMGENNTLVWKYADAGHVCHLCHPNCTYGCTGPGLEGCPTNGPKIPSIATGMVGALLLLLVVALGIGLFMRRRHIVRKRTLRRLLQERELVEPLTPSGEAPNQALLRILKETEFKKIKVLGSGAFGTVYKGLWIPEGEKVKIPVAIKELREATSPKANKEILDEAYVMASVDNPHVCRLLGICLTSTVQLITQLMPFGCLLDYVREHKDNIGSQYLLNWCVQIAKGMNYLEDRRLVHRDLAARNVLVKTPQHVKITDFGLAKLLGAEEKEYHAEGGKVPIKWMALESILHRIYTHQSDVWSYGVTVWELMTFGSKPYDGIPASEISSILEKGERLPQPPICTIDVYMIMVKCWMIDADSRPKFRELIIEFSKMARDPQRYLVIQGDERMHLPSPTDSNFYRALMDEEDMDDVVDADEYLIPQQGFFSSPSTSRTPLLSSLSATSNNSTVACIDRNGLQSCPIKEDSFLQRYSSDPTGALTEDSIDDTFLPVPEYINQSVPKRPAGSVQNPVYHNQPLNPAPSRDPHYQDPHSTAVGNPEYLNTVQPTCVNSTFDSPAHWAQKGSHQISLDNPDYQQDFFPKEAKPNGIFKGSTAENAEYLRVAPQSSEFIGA

Compound | Q2-4 (early apoptosis) ([1]; A549, 0.1 μM) [%] | Q2-4 (early apoptosis) ([1]; A549, 1 μM) [%] | Proportion of A549 cells at G2/M ([2]; 0.1 μM) [%] | Proportion of A549 cells at G2/M ([2]; 0.5 μM) [%] | Proportion of A549 cells at G2/M ([2]; 1 μM) [%] | IC50 [3] [µM] | melting point [°C] | IC50 [4] [µM] | IC50 [5] [µM] | inhibition at 1 µM [6] [%] | EGFR^wt-TK inhibition rate [6] [%] | IC50 [6] [µM] | inhibition against NRK-52E cells [7]
COc1cc2ncnc(Nc3ccc(F)c(Cl)c3)c2cc1OCCCN1CCOCC1 [Gefitinib] | 1.03 | 11.98 | 17.32 | 20.72 | 21.45 | – | – | – | – | – | – | – | –
CNC(=O)c1sccc1Nc1nc(Nc2ccc(NC(=O)C3CCCCC3)cc2)ncc1C(F)(F)F [Compound 9o, 3-{2-[4-(Cyclohexanecarbonyl-amino)-phenylamino]-5-trifluoromethyl-pyrimidin-4-ylamino}-thiophene-2-carboxylic acid methylamide] | – | – | – | – | – | > 20 | 246.7 to 248.2 | 8.49 ± 0.63 | 13.5 ± 1.24 | 26.6 ± 1.38 | – | – | –
CNC(=O)c1sccc1Nc1nc(Nc2ccc(NC(=O)c3cccc(F)c3)cc2)ncc1C(F)(F)F [Compound 9c, 3-{2-[4–(3-Fluoro-benzoylamino)-phenylamino]-5-trifluoromethyl-pyrimidin-4-ylamino}-thiophene-2-carboxylic acid methylamide] | – | – | – | – | – | 16.4 ± 2.27 | 239.8 to 241.5 | 2.23 ± 0.42 | 5.32 ± 0.74 | > 50 | 55.48 ± 1.71 | 0.31 ± 0.095 | –
CNC(=O)c1sccc1Nc1nc(Nc2ccc(NC(=O)C=Cc3cccc(F)c3)cc2)ncc1C(F)(F)F [Compound 9u, 3–(2-{4-[3-(3-Fluoro-phenyl)-acryloylamino]-phenylamino} -5-trifluoromethyl-pyrimidin-4-ylamino)-thiophene-2-carboxylic acid methylamide] | 3.39 | 52.96 | 19.79 | – | 43.92 | 5.12 ± 0.73 | 237.5 to 238.8 | 0.35 ± 0.11 | 3.24 ± 0.16 | > 50 | 62.73 ± 1.86 | 0.091 ± 0.0084 | less than 5%
CNC(=O)c1sccc1Nc1nc(Nc2ccc(NC(=O)c3ccccc3)cc2)ncc1C(F)(F)F [Compound 9a, 3-[2-(4-Benzoylamino-phenylamino)-5-trifluoromethyl-pyrimidin-4-ylamino]-thiophene-2-carboxylic acid methylamide] | – | – | – | – | – | 14.6 ± 0.83 | 212.5 to 213.8 | 8.51 ± 0.94 | 11.9 ± 1.36 | 32.5 ± 2.56 | – | – | –
CNC(=O)c1sccc1Nc1nc(Nc2ccc(NC(=O)c3ccc(OC)cc3)cc2)ncc1C(F)(F)F [Compound 9g, 3-{2-[4-(4-Methoxy-benzoylamino)-phenylamino]-5-trifluoromethyl-pyrimidin-4-ylamino}-thiophene-2-carboxylic acid methylamide] | – | – | – | – | – | > 20 | 229.4 to 230.6 | 7.63 ± 0.62 | 10.1 ± 1.18 | 28.8 ± 0.62 | – | – | –
CNC(=O)c1sccc1Nc1nc(Nc2ccc(NC(=O)c3ccccc3F)cc2)ncc1C(F)(F)F [Compound 9b, 3-{2-[4-(2-Fluoro-benzoylamino)-phenylamino]-5-trifluoromethyl-pyrimidin-4-ylamino}-thiophene-2-carboxylic acid methylamide] | – | – | – | – | – | 11.2 ± 1.68 | 213.3 to 215.4 | 4.03 ± 0.47 | 6.05 ± 0.82 | 46.3 ± 1.85 | – | – | –
CNC(=O)c1sccc1Nc1nc(Nc2ccc(NC(=O)C3CCOCC3)cc2)ncc1C(F)(F)F [Compound 9p, Tetrahydro-pyran-4-carboxylicacid{4-[4-(2-methylcarbamoyl-thiophen-3-ylamino)-5-trifluoromethyl-pyrimidin-2-ylamino]-phenyl}-amide] | – | – | – | – | – | > 20 | 232.3 to 233.8 | 7.28 ± 0.47 | 10 ± 0.96 | 36.46 ± 0.23 | – | – | –
CNC(=O)c1sccc1Nc1nc(Nc2ccc(NC(=O)c3cc(OC)c(OC)c(OC)c3)cc2)ncc1C(F)(F)F [Compound 9h, 3-{5-Trifluoromethyl-2-[4-(3,4,5-trimethoxy-benzoylamino)-phenylamino]-pyrimidin-4-ylamino}-thiophene-2-carboxylic acid methylamide] | – | – | – | – | – | 11.3 ± 1.42 | 211.9 to 213.1 | 1.66 ± 0.54 | 3.37 ± 0.62 | > 50 | 56.43 ± 0.51 | 0.35 ± 0.062 | –
